{"source": "patent US20260224489A1", "about": "“TRICINE AND CITRIC ACID-BASED CATIONIC LIPIDS WITH AROMATIC HEAD GROUPS” (SANOFI, priority 2023, published 2026)", "key": {"[1]": {"test_system": "luciferase production in the lung", "test": "Delivery of Firefly Luciferase (FFL) mRNA by intratracheal administration via catheter, IVIS imaging", "format": "in vivo, male CD1 mice", "details": "for FFLuc (Avr. Rad.): single intratracheal administration, lung; for in vivo FFL protein production (FIG. 8), in words: intratracheal delivery via catheter of FFL mRNA lipid nanoparticles to mice", "protocol": "Lipid nanoparticle formulations 1, 2 and 4 were administered via intratracheal pulmonary delivery. Compound B was the only cationic lipid evaluated via intratracheal pulmonary delivery with lipid nanoparticle formulation 2. Compound A was the only cationic lipid evaluated via intratracheal pulmonary delivery with lipid nanoparticle formulation 4. All other cationic lipids were evaluated via intratracheal pulmonary delivery with lipid nanoparticle formulation 1.\nLipid nanoparticle formulations 1, 2 and 4 listed in Table 1 comprising FFL mRNA, cationic lipid, DMG-PEG2000, cholesterol and DOPE were administered to male CD1 mice (6-8 weeks old) by a single intratracheal administration via Catheter® (50 μl/animal) while under anesthesia. At approximately 24 hours post-dose, the animals were dosed with luciferin at 150 mg/kg (60 mg/mi) by intraperitoneal injection at 2.5 ml/kg. After 5-15 minutes, all animals were imaged using an IVIS imaging system to measure luciferase production in the lung."}, "[2]": {"test": "Lipid degradability by human lung S9 in vitro", "format": "in vitro ADME", "details": "2 μM lipid, 2.4 mg/ml lung S9, pH 7.4, 37° C., time points up to 48 hr", "protocol": "(§1) Assay format—4 or 5 time points in triplicate.\n(§2) • 1) Plan experiment, compounds, and reagents. • 2) Dissolve each lipid in DMSO or IPA to make 5 mM stock, then dilute by IPA to 200 μM work solution. • 3) Thaw mouse and human lung S9. • 4) Prepare pooled incubation mixture as in the reaction formulas below on ice. • 5) Aliquot 495 μL incubation mixture prepared in step #4 to each well of a 2 mL 96-well plate. • 6) Add 5 μL compound to each well to initiate the reaction. Take t0 samples (as in step #8). • 7) Cover the plate with 2 layers of breathable seals and incubate the plate on an orbital shaker at 150 rpm in a 37° C. CO2 incubator. • 8) At each time point, pipette to mix the incubation mixture 5 times, then take 70 μL of incubation mixture to a fresh plate. Store in −20° C. freezer immediately. • 9) Add 210 μL (3× volume) of the cold stop solution to each well of the sample plates collected. Mix at 600 rpm on an orbital shaker for 15 min. • 10) Centrifuge the quenched plates at 3800 rpm for 10 min at 4° C. and transfer supernatant to fresh plates. • 11) Load the supernatant on filter plates and centrifuge again at 3800 rpm for 5 min at 4° C. Collect final samples in fresh plates for LC/MS. • 11. Time course and stop solutions: 4-5 Time points (hour): e.g. 0, 4, 8, 24, 48 hr stop solution: 1:1:1 ACN/MeOH/IPA (v/v/v) with propranolol & MC3 as internal standard. Store at 4° C."}, "[3]": {"test": "Lipid degradability by mouse lung S9 in vitro", "format": "in vitro ADME", "details": "2 μM lipid, 2.4 mg/ml lung S9, pH 7.4, 37° C., time points up to 48 hr", "protocol": "as §1, §2"}, "[4]": {"details": "dose 10 μg/Animal, lipid nanoparticle formulation 1, approximately 24 hours post-dose"}, "[5]": {"details": "dose 5 μg/Animal, lipid nanoparticle formulation 1, approximately 24 hours post-dose"}}}
{"smiles": "CC(C)CCCC(C)[C@H]1CCC2C3CC=C4C[C@@H](OC(=O)CCc5c[nH]cn5)CC[C@]4(C)C3CC[C@@]21C", "note": "(stereo partly shown) [ICE, imidazole cholesterol ester, reference compound]", "values": [{"measurement": "FFLuc (Avr. Rad.)", "setting": "[1]; [4]", "value": "7,508 p/s/cm^2/sr"}]}
{"smiles": "CCCCCCCCOC(=O)CC(CC(=O)OCCCCCCCC)(OC(=O)CCC(=O)Oc1c(OC)cc(/C=C/C(=O)OCCCN(C)C)cc1OC)C(=O)OCCCCCCCC", "note": "[Compound XXVI]", "values": [{"measurement": "In vitro degradation Human lung S9", "setting": "[2]", "value": "long (over 48 h"}, {"measurement": "In vitro degradation Mouse lung S9", "setting": "[3]", "value": 36, "unit": "h"}, {"measurement": "FFLuc (Avr. Rad.)", "setting": "[1]; [5]", "value": "140,620 p/s/cm^2/sr"}, {"measurement": "in vivo FFL protein production (FIG. 8), in words", "setting": "[1]", "value": "high levels of in vivo FFL protein production"}]}
{"smiles": "CCCCCCCCOC(=O)CC(CC(=O)OCCCCCCCC)(OC(=O)/C=C/C(=O)Oc1c(OC)cc(C(=O)OCCCN(C)C)cc1OC)C(=O)OCCCCCCCC", "note": "[Compound X]", "values": [{"measurement": "FFLuc (Avr. Rad.)", "setting": "[1]; [4]", "value": "173,197 p/s/cm^2/sr"}]}
{"smiles": "CCCCCC#CCOC(=O)CC(CC(=O)OCC#CCCCCC)(OC(=O)CCC(=O)Oc1c(OC)cc(C(=O)OCCCN(C)C)cc1OC)C(=O)OCC#CCCCCC", "note": "[Compound V]", "values": [{"measurement": "In vitro degradation Human lung S9", "setting": "[2]", "value": 14.8, "unit": "h"}, {"measurement": "In vitro degradation Mouse lung S9", "setting": "[3]", "value": 1.3, "unit": "h"}, {"measurement": "FFLuc (Avr. Rad.)", "setting": "[1]; [4]", "value": "567,300 p/s/cm^2/sr"}]}
{"smiles": "CCCCCCCCOC(=O)CC(CC(=O)OCCCCCCCC)(OC(=O)CCN(C)C)C(=O)OCCCCCCCC", "note": "[Compound B, reference compound]", "values": [{"measurement": "FFLuc (Avr. Rad.)", "setting": "[1]; dose 10 μg/Animal, lipid nanoparticle formulation 2, approximately 24 hours post-dose", "value": "139,058 p/s/cm^2/sr"}]}
{"smiles": "CCCCC/C=C/COC(=O)CC(CC(=O)OC/C=C/CCCCC)(OC(=O)CCC(=O)Oc1c(OC)cc(C(=O)OCCCN(C)C)cc1OC)C(=O)OC/C=C/CCCCC", "note": "[Compound III]", "values": [{"measurement": "In vitro degradation Human lung S9", "setting": "[2]", "value": 17.1, "unit": "h"}, {"measurement": "In vitro degradation Mouse lung S9", "setting": "[3]", "value": 6.8, "unit": "h"}, {"measurement": "FFLuc (Avr. Rad.)", "setting": "[1]; [4]", "value": "353,012 p/s/cm^2/sr"}]}
{"smiles": "CCCCCCCCOC(=O)CC(CC(=O)OCCCCCCCC)(OC(=O)CCC(=O)Oc1c(OC)cc(C(=O)OCCCN(C)C)cc1OC)C(=O)OCCCCCCCC", "note": "[Compound II]", "values": [{"measurement": "In vitro degradation Human lung S9", "setting": "[2]", "value": 20.2, "unit": "h"}, {"measurement": "In vitro degradation Mouse lung S9", "setting": "[3]", "value": 16.6, "unit": "h"}, {"measurement": "FFLuc (Avr. Rad.)", "setting": "[1]; [5]", "value": "592,250 p/s/cm^2/sr"}, {"measurement": "in vivo FFL protein production (FIG. 8), in words", "setting": "[1]", "value": "high levels of in vivo FFL protein production"}]}
{"smiles": "CCCCCCCCCCCCC(O)CN(CCCC(=O)Oc1c(OC)cc(C(=O)OCCCN(C)C)cc1OC)CC(O)CCCCCCCCCCCC", "note": "(stereo not shown) [Compound A, reference compound]", "values": [{"measurement": "FFLuc (Avr. Rad.)", "setting": "[1]; dose 10 μg/Animal, lipid nanoparticle formulation 4, approximately 24 hours post-dose", "value": "221,320 p/s/cm^2/sr"}]}
{"smiles": "CCCCCCCCOC(=O)CC(CC(=O)OCCCCCCCC)(OC(=O)CCC(=O)Oc1c(OC)cc(C(=O)OCCN(C)C)cc1OC)C(=O)OCCCCCCCC", "note": "[Compound I]", "values": [{"measurement": "In vitro degradation Human lung S9", "setting": "[2]", "value": 20.2, "unit": "h"}, {"measurement": "In vitro degradation Mouse lung S9", "setting": "[3]", "value": 16.2, "unit": "h"}, {"measurement": "FFLuc (Avr. Rad.)", "setting": "[1]; [5]", "value": "158,516 p/s/cm^2/sr"}, {"measurement": "in vivo FFL protein production (FIG. 8), in words", "setting": "[1]", "value": "high levels of in vivo FFL protein production"}]}
